Laboratory results: paper PMC9179341, “Design of New Potent and Selective Thiophene-Based KV1.3 Inhibitors and Their Potential for Anticancer Activity” (Cancers, 2022)
“Also recorded” adds a separate entry of the source. Each block holds one compound with its values, some of them ahead of it.

Legend:
Colo-357 tumor spheroids = test: Apoptosis (caspase 3/7 activity) in Colo-357 tumor spheroids; assay type: cell-based; details: with 8.9 µM cycloheximide, up to 100 µM
Method: (§1) Cell lines Panc-1 (ACC 783) and Colo-357 (CVCL_0221) were obtained through the validated collection of the pHioniC consortium (MSC-ITN 813834). Both cell lines were grown in RPMI1640, supplemented with 1 mM sodium pyruvate and 1% Glutamax (all Gibco Thermo-Fisher, Waltham, MA USA) 10%FBS (BioChrom, Berlin, Germany), at 5% CO2 and 37 °C in a humidified atmosphere.
(§2) Spheroids were cultured in round bottom ultra-low attachment 96-well plates (Corning). The optimal seeding densities were empirically determined (8000 cells/well for Colo-357 or 10,000 cells/well for Panc-1 spheroids. The cells were suspended in 2% Matrigel (Corning), centrifuged at 1000× g for 10 min and the spheroids were allowed to form in the incubator. Once the spheroids were formed, the treatments indicated together with 8.9 µM cycloheximide (as apoptosis sensitizer) were added and apoptosis was determined by live imaging in the Incucyte system in real time for approximately 60 h using Caspase-3/7 green reagent (Sartorius) as a reporter of apoptosis, which crosses the cell membrane and is cleaved by the activated Caspase-3/7, resulting in the fluorescent staining of nuclear DNA. Apoptosis on Panc-1 tumor spheroids is presented as integrated green fluorescence in the whole spheroid.

[1] = Turbidimetric solubility assay; assay type: physicochemical
Method: For the phosphate-buffered saline, we dissolved 2.38 g of disodium hydrogen phosphate dodecahydrate, 0.19 g of potassium dihydrogen phosphate, and 8.0 g of sodium chloride in water and diluted it to 1000 mL with the same solvent. Then we adjusted the pH to 7.4. The stock DMSO solutions of the compounds were prepared at concentrations of 50 mM, 20 mM, 10 mM, and 1 mM. The final solutions (500 µM, 200 µM, 100 µM, and 10 µM) were prepared by adding 2 µL of the stock DMSO solution to 198 µL of phosphate-buffered saline. The absorbance (area scan) was measured at 620 nm for sample volume of 200 µL and the appearance of the solutions was checked by visual inspection.

[2] = system: other KV1.x family channels or more distantly related channels; set-up: method as in PMID 32199306; details: cited from earlier work
KV1.3 = KV1.3 (Homo sapiens, UniProt P22001); set-up: method as in PMID 32199306; details: applied ex vivo to Kv1.3 expressing oocytes; read-out: IC50 KV1.3 (previous work); cited from earlier work
Sequence of KV1.3 (P22001 whole entry): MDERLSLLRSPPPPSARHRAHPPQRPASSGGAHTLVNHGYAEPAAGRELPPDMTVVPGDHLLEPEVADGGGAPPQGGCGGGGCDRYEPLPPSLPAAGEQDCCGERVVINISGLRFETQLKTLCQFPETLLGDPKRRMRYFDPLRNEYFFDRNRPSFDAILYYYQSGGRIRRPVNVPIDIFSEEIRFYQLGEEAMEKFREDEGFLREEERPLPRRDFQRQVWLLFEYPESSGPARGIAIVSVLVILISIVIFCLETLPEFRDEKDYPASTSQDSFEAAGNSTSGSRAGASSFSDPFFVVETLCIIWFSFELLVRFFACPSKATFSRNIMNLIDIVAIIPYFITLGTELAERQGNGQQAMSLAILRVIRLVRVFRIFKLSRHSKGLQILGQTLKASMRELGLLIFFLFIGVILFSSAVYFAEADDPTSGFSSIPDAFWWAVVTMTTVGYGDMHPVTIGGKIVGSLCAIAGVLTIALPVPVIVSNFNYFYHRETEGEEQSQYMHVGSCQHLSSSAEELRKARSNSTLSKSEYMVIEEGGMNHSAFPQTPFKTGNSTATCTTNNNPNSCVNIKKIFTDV

KV1.2 = KV1.2 (Homo sapiens, UniProt P16389); test: Selectivity, HiClamp Xenopus laevis heterologous expression system, KV1.2; assay type: cell-based; details: 10 µM; HiClamp, oocytes
Sequence of KV1.2 (P16389 whole entry): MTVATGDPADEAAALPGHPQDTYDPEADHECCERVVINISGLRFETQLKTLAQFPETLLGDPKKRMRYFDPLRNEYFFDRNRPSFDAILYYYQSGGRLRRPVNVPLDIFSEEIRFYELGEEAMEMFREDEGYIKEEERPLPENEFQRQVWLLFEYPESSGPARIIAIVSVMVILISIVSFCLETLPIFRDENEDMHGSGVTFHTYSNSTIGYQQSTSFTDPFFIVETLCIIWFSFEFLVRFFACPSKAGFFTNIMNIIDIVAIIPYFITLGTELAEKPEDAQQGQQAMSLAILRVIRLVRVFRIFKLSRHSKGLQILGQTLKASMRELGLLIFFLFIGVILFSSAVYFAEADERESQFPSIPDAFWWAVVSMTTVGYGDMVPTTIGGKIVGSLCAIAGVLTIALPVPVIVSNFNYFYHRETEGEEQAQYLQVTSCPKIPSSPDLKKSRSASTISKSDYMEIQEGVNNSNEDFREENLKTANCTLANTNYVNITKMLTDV
Method: (§3) Ion channels (Kv1.x, Kv2.1, Kv4.2, Kv10.1) were expressed in Xenopus laevis oocytes by linearization of the plasmids and subsequent in vitro transcription using a commercial T7 or SP6 mMESSAGE mMACHINE transcription kit (Ambion, Carlsbad, California, USA). Defolliculated Xenopus oocytes were then injected with 20–50 nL of the cRNA at a concentration of 1 ng/nL using a micro-injector (Drummond Scientific1, Broomall, PA, USA). The oocytes were incubated in a solution containing (in mM): NaCl, 96; KCl, 2; CaCl2, 1.8; MgCl2, 2 and HEPES, 5 (pH 7.5), supplemented with 50 mg/L gentamycin sulfate and 90 mg/L theophylline. After ex vivo translation, the ion channels were correctly inserted in the cell membrane of the oocytes.
(§4) Two-electrode voltage-clamp recordings were performed at room temperature (18–22 °C) using a Geneclamp 500 amplifier (Molecular Devices, San Jose, CA, USA) and pClamp data acquisition (Axon Instruments, Union City, CA, USA) and using an integrated digital TEVC amplifier controlled by HiClamp, an automated Voltage-Clamp Screening System (Multi Channel Systems MCS GmbH, Reutlingen, Germany). Whole-cell currents from oocytes were recorded 1–4 days after injection. The bath solution composition was ND96 (in mM): NaCl, 96; KCl, 2; CaCl2, 1.8; MgCl2, 2 and HEPES, 5 (pH 7.5). Voltage and current electrodes were filled with a 3 M solution of KCl in H2O. Resistances of both electrodes were kept between 0.5 and 1.5 MΩ. The elicited Kv1.x, Kv2.1, Kv4.2 and Kv10.1 currents were filtered at 0.5 kHz and sampled at 2 kHz using a four-pole low-pass Bessel filter. Leak subtraction was performed using a P/4 protocol.
(§5) For the electrophysiological analysis of the compounds, a number of protocols were applied from a holding potential of −90 mV. Currents for Kv1.x, Kv2.1, Kv4.2 and Kv10.1 were evoked by 1 s depolarizing pulses either to 0 mV or to a range of voltage steps between −80 mV and +40 mV. For the analysis of the data, only the inhibition at the 0 mV step was used. The concentration dependency of all compounds was assessed by measuring the current inhibition in the presence of increasing compound concentrations. […] From this stock solution, adequate dilutions with a maximum of 0.5% DMSO were made for testing.
(§6) All electrophysiological data (Figure S1) are presented as means ± S.E.M of n ≥ three independent experiments unless otherwise indicated. All data were analyzed using pClamp Clampfit 10.4 (Molecular Devices, Downingtown, PA, USA), OriginPro 9 (Originlab, Northampton, MA, USA), GraphPad Prism 8 software (GraphPad Software, Inc., San Diego, CA, USA) and DataMining (Multi Channel Systems MCS GmbH, Reutlingen, Germany). The Dunnett test and one-way ANOVA were performed to calculate the significance of the induced inhibition compared to the control.

KV10.1 = KV10.1 (Homo sapiens, UniProt O95259); test: Selectivity, HiClamp Xenopus laevis heterologous expression system, KV10.1; assay type: cell-based; details: 10 µM; HiClamp, oocytes
Sequence of KV10.1 (O95259 whole entry): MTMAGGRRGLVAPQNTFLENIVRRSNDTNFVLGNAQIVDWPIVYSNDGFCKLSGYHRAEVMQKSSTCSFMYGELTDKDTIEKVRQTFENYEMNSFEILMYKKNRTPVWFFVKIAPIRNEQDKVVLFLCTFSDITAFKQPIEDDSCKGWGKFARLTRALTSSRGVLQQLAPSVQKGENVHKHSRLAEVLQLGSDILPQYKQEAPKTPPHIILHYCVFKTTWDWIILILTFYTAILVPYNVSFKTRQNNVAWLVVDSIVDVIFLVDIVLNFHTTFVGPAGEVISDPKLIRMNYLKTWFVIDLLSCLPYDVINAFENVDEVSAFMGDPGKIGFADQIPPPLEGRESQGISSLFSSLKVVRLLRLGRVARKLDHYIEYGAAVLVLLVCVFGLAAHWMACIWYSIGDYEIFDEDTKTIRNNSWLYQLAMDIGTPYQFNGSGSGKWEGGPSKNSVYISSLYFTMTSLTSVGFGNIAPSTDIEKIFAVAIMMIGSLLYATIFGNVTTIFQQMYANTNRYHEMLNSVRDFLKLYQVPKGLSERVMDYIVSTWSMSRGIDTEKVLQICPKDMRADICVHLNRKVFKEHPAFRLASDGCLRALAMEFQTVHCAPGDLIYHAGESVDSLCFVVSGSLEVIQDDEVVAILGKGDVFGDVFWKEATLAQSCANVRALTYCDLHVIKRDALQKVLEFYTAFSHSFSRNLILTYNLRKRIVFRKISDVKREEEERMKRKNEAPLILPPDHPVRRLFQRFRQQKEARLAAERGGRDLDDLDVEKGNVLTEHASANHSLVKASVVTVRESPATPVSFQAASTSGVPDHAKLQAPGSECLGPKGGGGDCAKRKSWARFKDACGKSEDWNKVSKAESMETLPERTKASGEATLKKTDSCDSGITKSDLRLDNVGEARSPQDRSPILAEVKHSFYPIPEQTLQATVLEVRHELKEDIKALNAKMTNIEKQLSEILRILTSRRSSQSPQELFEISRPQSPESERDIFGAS
Method: as §3, with “After ex vivo translation, the ion channels were correctly inserted in the cell membrane of the oocytes.” left out
(§7) Two-electrode voltage-clamp recordings were performed at room temperature (18–22 °C) using a Geneclamp 500 amplifier (Molecular Devices, San Jose, CA, USA) and pClamp data acquisition (Axon Instruments, Union City, CA, USA) and using an integrated digital TEVC amplifier controlled by HiClamp, an automated Voltage-Clamp Screening System (Multi Channel Systems MCS GmbH, Reutlingen, Germany). Whole-cell currents from oocytes were recorded 1–4 days after injection. […]
(§8) For the electrophysiological analysis of the compounds, a number of protocols were applied from a holding potential of −90 mV. […] The concentration dependency of all compounds was assessed by measuring the current inhibition in the presence of increasing compound concentrations. […]

KV1.6 = KV1.6 (Homo sapiens, UniProt P17658); test: Selectivity, HiClamp Xenopus laevis heterologous expression system, KV1.6; assay type: cell-based; details: 10 µM; HiClamp, oocytes
Sequence of KV1.6 (P17658 whole entry): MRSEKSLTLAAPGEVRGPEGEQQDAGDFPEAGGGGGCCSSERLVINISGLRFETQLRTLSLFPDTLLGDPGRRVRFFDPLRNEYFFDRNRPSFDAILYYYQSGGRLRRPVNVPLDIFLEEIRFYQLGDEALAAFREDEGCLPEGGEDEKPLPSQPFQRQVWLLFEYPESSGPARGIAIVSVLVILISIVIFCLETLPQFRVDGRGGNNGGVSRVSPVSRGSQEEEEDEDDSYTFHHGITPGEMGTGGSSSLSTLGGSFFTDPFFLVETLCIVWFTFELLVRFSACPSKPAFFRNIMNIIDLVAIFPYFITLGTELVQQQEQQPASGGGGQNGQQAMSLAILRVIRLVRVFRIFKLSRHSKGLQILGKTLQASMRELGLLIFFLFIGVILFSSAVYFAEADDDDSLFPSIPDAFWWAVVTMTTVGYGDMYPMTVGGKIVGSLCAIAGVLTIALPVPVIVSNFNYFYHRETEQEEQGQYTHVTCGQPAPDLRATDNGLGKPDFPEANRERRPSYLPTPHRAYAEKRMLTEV
Method: as §3, §4, §5, §6

KV1.5 = KV1.5 (Homo sapiens, UniProt P22460); test: Selectivity, HiClamp Xenopus laevis heterologous expression system, KV1.5; assay type: cell-based; details: 10 µM; HiClamp, oocytes
Sequence of KV1.5 (P22460 whole entry): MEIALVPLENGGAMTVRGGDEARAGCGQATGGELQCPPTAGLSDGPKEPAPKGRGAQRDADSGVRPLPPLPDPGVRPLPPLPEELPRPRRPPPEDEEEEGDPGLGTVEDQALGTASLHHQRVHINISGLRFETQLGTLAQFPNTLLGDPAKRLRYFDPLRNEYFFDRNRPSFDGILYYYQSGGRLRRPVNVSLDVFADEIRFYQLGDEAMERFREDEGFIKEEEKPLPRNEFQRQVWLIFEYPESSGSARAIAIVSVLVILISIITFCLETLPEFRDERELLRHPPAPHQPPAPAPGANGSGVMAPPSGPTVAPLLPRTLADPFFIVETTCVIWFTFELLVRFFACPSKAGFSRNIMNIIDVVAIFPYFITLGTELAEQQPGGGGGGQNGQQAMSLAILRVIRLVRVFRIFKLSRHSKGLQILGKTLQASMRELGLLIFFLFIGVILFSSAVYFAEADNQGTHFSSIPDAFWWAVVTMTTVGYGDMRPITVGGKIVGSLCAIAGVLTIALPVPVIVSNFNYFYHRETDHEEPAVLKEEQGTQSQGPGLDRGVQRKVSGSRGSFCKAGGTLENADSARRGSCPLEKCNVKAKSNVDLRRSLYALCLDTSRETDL
Method: as §3, §4, §5, §6

KV1.4 = KV1.4 (Homo sapiens, UniProt P22459); test: Selectivity, HiClamp Xenopus laevis heterologous expression system, KV1.4; assay type: cell-based; details: 10 µM; HiClamp, oocytes
Sequence of KV1.4 (P22459 whole entry): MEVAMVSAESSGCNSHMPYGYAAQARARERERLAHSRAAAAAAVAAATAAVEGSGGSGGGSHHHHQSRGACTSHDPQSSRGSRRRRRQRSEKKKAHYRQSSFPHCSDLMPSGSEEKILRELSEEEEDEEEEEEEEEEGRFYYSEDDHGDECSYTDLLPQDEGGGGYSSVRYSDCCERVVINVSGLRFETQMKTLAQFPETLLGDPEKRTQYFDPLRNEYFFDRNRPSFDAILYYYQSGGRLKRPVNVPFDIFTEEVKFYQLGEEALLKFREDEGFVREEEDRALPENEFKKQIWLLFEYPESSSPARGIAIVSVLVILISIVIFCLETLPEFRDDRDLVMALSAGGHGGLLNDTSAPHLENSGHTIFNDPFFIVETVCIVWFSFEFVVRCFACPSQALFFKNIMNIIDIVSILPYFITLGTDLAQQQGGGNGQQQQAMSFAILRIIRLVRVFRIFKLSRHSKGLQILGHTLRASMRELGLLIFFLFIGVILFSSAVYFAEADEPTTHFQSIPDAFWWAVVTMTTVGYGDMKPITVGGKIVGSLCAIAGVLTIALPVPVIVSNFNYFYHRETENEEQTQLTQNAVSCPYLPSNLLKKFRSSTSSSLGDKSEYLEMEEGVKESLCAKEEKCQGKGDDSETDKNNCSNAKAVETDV
Method: as §3
as §4, with “Resistances of both electrodes were kept between 0.5 and 1.5 MΩ. The elicited Kv1.x, Kv2.1, Kv4.2 and Kv10.1 currents were filtered at 0.5 kHz and sampled at 2 kHz using a four-pole low-pass Bessel filter. Leak subtraction was performed using a P/4 protocol.” left out
as §8
as §6, with “The Dunnett test and one-way ANOVA were performed to calculate the significance of the induced inhibition compared to the control.” left out

Panc-1 tumor spheroids = test: Apoptosis (caspase 3/7 activity) in Panc-1 tumor spheroids; assay type: cell-based; details: with 8.9 µM cycloheximide
Method: as §1, §2

KV2.1 = molecular target: T1, KV2.1 (Homo sapiens, UniProt Q14721); test: Selectivity, HiClamp Xenopus laevis heterologous expression system, KV2.1; assay type: cell-based; details: 10 µM; HiClamp, oocytes
T1 sequence (Q14721 1-858): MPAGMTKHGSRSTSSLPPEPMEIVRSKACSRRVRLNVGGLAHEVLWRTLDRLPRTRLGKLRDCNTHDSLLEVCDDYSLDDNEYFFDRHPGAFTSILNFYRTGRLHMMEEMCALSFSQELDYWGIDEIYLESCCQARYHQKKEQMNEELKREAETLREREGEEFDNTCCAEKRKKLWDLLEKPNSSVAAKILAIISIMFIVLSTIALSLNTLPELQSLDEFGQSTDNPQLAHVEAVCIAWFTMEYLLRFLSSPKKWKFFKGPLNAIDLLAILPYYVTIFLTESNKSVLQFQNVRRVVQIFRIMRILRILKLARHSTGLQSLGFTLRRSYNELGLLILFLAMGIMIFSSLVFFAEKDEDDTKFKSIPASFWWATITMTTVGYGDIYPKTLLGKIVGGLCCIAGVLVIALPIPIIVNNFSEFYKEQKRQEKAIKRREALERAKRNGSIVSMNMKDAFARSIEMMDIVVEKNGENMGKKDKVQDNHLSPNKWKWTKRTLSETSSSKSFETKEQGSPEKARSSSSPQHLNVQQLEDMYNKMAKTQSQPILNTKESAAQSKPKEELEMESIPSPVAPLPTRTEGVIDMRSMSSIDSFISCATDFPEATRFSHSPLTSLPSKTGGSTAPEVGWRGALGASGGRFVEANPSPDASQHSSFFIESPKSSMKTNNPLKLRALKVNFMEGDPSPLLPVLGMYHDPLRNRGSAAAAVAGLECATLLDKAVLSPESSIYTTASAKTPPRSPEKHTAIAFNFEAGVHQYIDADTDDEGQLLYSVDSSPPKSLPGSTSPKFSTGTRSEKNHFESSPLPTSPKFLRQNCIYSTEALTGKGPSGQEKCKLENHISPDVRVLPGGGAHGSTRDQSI
Method: as §3
as §4, with “Resistances of both electrodes were kept between 0.5 and 1.5 MΩ. The elicited Kv1.x, Kv2.1, Kv4.2 and Kv10.1 currents were filtered at 0.5 kHz and sampled at 2 kHz using a four-pole low-pass Bessel filter. Leak subtraction was performed using a P/4 protocol.” left out
as §8
as §6, with “The Dunnett test and one-way ANOVA were performed to calculate the significance of the induced inhibition compared to the control.” left out

[3] = system: cancer cells (human SAOS2, mouse B16F10 melanoma, and human B-CLL); details: PAP-1 20 µM, clofazimine 1 or 10 µM, with MDRi cyclosporine H (4 µM) and probenecid (100 µM); cited from earlier work
KV1.1 = KV1.1 (Rattus norvegicus, UniProt P10499); test: Selectivity, HiClamp Xenopus laevis heterologous expression system, KV1.1; assay type: cell-based; details: 10 µM; HiClamp, oocytes
Sequence of KV1.1 (P10499 whole entry): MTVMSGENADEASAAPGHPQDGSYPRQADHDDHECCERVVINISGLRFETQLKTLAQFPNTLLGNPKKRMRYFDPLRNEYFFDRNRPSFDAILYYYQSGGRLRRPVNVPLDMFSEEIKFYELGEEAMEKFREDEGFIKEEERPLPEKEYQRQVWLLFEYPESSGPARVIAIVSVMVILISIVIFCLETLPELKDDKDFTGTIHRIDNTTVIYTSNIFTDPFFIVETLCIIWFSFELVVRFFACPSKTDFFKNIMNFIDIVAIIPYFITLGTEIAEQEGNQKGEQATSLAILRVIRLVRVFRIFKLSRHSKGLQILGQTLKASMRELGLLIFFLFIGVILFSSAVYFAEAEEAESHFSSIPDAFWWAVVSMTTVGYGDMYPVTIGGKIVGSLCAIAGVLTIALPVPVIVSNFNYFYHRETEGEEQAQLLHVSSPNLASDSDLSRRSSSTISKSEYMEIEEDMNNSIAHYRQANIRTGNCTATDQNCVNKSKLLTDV
Method: as §3, §4, §5, §6

KV4.2 = KV4.2 (Homo sapiens, UniProt Q9NZV8); test: Selectivity, HiClamp Xenopus laevis heterologous expression system, KV4.2; assay type: cell-based; details: 10 µM, oocytes
Sequence of KV4.2 (Q9NZV8 whole entry): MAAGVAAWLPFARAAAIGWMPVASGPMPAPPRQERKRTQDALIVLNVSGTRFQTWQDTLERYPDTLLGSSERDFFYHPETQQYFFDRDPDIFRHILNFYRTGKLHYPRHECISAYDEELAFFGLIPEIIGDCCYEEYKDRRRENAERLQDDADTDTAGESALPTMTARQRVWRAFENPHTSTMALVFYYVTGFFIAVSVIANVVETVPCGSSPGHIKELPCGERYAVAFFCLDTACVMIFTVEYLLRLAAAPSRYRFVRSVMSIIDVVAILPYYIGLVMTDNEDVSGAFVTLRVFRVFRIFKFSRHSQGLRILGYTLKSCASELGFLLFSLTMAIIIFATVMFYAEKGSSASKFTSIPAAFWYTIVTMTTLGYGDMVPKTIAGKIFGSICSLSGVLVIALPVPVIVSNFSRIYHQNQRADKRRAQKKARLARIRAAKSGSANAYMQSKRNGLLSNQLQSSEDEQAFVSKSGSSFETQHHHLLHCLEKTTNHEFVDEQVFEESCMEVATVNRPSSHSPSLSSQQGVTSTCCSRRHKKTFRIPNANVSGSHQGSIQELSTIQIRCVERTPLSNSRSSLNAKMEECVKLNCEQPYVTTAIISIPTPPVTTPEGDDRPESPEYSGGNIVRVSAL
Method: as §3, with “After ex vivo translation, the ion channels were correctly inserted in the cell membrane of the oocytes.” left out
as §7, §8

[4] = system: pancreatic ductal adenocarcinoma (PDAC) cell lines; details: cited from earlier work
[5] = system: KV1.1, KV1.2, KV1.5 and KV3.1; set-up: method as in PMID 19104661; details: cited from earlier work
[6] = system: orthotopic PDAC xenotransplantation model; details: orthotopic PDAC xenotransplantation model in SCID beige mice; cited from earlier work
Panc-1 cell line = system: Panc-1 cell line; set-up: method as in PMID 29034212; details: Panc-1; 20 µM; cited from earlier work
Colo-357 = system: Colo-357; set-up: method as in PMID 29034212; details: read-out: EC50 cell death; cited from earlier work

SMILES: COc1ccccc1C(=O)NCC1(c2ccsc2)CCCC1 [Compound 4]
Induction of apoptosis in Colo-357 spheroids (Colo-357 tumor spheroids): significant induction of apoptosis; also recorded: induced a significant amount of apoptosis
absorbance at 620 nm ([1]; 10 µM in PBS with 1 % final DMSO): 0
absorbance at 620 nm ([1]; 100 µM in PBS with 1 % final DMSO): 0,035
absorbance at 620 nm ([1]; 200 µM in PBS with 1 % final DMSO): 0,127
absorbance at 620 nm ([1]; 500 µM in PBS with 1 % final DMSO): 0,189
Effect on other KV1.x family channels or more distantly related channels [2]: did not affect

SMILES: COc1ccccc1C(=O)NCC1(c2ccccc2)CCOCC1 [Compound 5]
IC50 (KV1.3): 0.92 µM

Effect on KV1.2 channel (KV1.2): no significant effects
Effect on KV10.1 channel (KV10.1): no significant effects
Effect on KV1.6 channel (KV1.6): no significant effects
Effect on KV1.5 channel (KV1.5): no significant effects
Effect on KV1.4 channel (KV1.4): no significant effects
Effect on KV2.1 channel (KV2.1): no significant effects
Effect on KV1.1 channel (KV1.1): no significant effects
Effect on KV4.2 channel (KV4.2): no significant effects
SMILES: O=c1ccc2c(OCCCCOc3ccccc3)c3ccoc3cc2o1 [PAP-1 (1), PAP-1, reference compound]
Induction of apoptosis in Panc-1 spheroids (Panc-1 tumor spheroids): did and induce significant apoptosis
Induction of apoptosis in cancer cells [3]: induced mild apoptosis

SMILES: CC(C)/N=c1\cc2n(-c3ccc(Cl)cc3)c3ccccc3nc-2cc1Nc1ccc(Cl)cc1 [clofazimine (3), clofazimine]
EC50 apoptosis in PDAC cell lines [4]: micromolar range
Induction of apoptosis in PDAC cell lines [4]: induced significant apoptosis
Potency on KV1.3 relative to KV1.1, KV1.2, KV1.5 and KV3.1 [5]: tenfold higher potency
Primary tumor weight [6]: significantly reduced
cell death (Panc-1 cell line): less than 30%
Induction of apoptosis in cancer cells [3]: induced mild apoptosis
EC50 (Colo-357): 1.5 µM
